Experimental data reported in EP4722212A1, “NOVEL COMPOUND FOR INHIBITING PROTEIN KINASES AND PHARMACEUTICAL COMPOSITION COMPRISING SAME” (Magicbullettherapeutics Co., Ltd., priority 2023, dated 2024).
Like-named read-outs stand apart in the source and are kept apart here.

Assays:
Assay in all cases: Kinase panel
Assay type in all cases: biochemical
[1] = biological target: LATS2 (Homo sapiens, UniProt Q9NRM7); details: LATS2, 1 µM; read-out: residual enzyme activity
Procedure, shortened: (§1)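 Biochemical full-panel kinase assay with compounds tested at a single concentration of 1 µM. Values are residual enzyme activity. Kinases were flagged when residual activity was 40% or less, i.e. inhibition of 60% or more.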

[2] = biological target: RAF1 (Homo sapiens, UniProt P04049); details: RAF1, 1 µM; read-out: residual enzyme activity
Chain of RAF1 (P04049 whole entry, species assumed): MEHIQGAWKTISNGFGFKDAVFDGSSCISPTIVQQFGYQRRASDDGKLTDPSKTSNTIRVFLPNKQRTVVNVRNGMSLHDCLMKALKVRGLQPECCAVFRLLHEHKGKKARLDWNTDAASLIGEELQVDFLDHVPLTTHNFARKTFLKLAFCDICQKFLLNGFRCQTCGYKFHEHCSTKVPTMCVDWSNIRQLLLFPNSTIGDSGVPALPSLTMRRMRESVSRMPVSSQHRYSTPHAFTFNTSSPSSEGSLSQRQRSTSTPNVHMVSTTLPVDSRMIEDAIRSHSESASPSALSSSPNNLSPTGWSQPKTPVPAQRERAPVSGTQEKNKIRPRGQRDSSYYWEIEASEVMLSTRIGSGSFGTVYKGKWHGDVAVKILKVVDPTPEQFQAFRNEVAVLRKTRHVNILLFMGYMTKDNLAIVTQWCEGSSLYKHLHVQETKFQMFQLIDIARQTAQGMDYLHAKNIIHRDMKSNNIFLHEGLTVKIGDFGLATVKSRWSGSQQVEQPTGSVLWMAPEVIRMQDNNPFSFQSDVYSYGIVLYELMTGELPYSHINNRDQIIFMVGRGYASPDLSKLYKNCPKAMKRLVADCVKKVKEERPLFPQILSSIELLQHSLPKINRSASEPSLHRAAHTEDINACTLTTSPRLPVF
Procedure, shortened: as §1

[3] = biological target: CDK2/CYCLIN E2 (Homo sapiens, UniProt P24941); details: CDK2/cyclin E2, 1 µM; read-out: residual enzyme activity
Procedure, shortened: as §1

[4] = biological target: YES/YES1 (Homo sapiens, UniProt P07947); details: YES/YES1, 1 µM; read-out: residual enzyme activity
Procedure, shortened: as §1

[5] = biological target: CKIG3 (Homo sapiens, UniProt Q9Y6M4); details: CKIG3, 1 µM; read-out: residual enzyme activity
Procedure, shortened: as §1

[6] = biological target: CDK4/CYCLIN D1 (Homo sapiens, UniProt P11802); details: CDK4/cyclin D1, 1 µM; read-out: residual enzyme activity
Chain of CDK4/CYCLIN D1 (P11802 whole entry, species assumed): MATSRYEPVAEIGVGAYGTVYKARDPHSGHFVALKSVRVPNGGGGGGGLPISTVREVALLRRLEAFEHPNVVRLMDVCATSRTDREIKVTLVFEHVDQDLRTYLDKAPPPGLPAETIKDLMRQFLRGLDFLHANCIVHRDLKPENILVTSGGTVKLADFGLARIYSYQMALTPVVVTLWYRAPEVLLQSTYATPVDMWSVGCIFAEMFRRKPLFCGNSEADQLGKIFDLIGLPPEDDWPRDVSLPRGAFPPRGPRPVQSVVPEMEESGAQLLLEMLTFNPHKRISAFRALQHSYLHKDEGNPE
Chain of CDK4/CYCLIN D1 (P24385 whole entry partner, species assumed): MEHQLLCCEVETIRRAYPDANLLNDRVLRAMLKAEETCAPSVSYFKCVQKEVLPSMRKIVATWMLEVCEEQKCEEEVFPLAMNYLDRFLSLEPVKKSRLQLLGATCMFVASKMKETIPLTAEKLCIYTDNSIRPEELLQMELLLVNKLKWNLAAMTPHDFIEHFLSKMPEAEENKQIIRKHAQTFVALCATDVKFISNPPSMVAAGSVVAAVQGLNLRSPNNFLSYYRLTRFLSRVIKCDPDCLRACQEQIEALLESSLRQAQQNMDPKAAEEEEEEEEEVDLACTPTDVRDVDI
Procedure, shortened: as §1

[7] = biological target: GLK/MAP4K3 (Homo sapiens, UniProt Q8IVH8); details: GLK/MAP4K3, 1 µM; read-out: residual enzyme activity
Chain of GLK/MAP4K3 (Q8IVH8 whole entry): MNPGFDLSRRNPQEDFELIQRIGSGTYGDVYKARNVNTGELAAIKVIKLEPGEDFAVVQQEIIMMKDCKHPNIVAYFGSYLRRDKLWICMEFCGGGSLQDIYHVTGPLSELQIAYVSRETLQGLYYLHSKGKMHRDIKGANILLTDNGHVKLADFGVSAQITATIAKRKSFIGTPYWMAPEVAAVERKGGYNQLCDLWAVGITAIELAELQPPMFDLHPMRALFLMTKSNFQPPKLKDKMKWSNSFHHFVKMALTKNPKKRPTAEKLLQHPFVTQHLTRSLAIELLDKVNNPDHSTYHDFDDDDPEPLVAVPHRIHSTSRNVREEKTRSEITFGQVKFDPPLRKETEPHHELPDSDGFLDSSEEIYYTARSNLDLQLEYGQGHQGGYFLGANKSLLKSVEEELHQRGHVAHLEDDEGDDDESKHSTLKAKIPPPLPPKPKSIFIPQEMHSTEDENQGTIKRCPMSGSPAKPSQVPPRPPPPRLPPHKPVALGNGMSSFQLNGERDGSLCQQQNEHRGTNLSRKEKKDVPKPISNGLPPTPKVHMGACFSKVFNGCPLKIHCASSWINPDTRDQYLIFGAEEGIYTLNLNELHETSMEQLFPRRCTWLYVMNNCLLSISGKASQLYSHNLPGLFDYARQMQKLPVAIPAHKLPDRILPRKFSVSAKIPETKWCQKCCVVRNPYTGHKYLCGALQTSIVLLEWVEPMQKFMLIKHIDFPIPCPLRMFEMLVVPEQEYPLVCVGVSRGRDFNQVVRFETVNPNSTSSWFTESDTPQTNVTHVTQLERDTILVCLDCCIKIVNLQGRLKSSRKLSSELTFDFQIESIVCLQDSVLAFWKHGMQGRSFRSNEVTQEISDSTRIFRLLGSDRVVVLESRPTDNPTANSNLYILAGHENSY
Procedure, shortened: as §1

[8] = biological target: MKK4 (Homo sapiens, UniProt P45985); details: MKK4, 1 µM; read-out: residual enzyme activity
Procedure, shortened: as §1

[9] = biological target: FLT1/VEGFR1 (Homo sapiens, UniProt P17948); details: FLT1/VEGFR1, 1 µM; read-out: residual enzyme activity
Procedure, shortened: as §1

[10] = biological target: CLK2 (Homo sapiens, UniProt P49760); details: CLK2, 1 µM; read-out: residual enzyme activity
Procedure, shortened: as §1

[11] = biological target: DCAMKL1 (Homo sapiens, UniProt O15075); details: DCAMKL1, 1 µM; read-out: residual enzyme activity
Procedure, shortened: as §1

[12] = biological target: ERN1/IRE1 (Homo sapiens, UniProt O75460); details: ERN1/IRE1, 1 µM; read-out: residual enzyme activity
Procedure, shortened: as §1

[13] = biological target: MYO3B (Homo sapiens, UniProt Q8WXR4); details: read-out: residual enzyme activity
Procedure, shortened: as §1

[14] = biological target: MARK4 (Homo sapiens, UniProt Q96L34); details: MARK4, 1 µM; read-out: residual enzyme activity
Procedure, shortened: as §1

[15] = biological target: EPHA2 (Homo sapiens, UniProt P29317); details: EPHA2, 1 µM; read-out: residual enzyme activity
Procedure, shortened: as §1

[16] = biological target: ABL2/ARG (Homo sapiens, UniProt P42684); details: read-out: residual enzyme activity
Procedure, shortened: as §1

[17] = biological target: DYRK2 (Homo sapiens, UniProt Q92630); details: DYRK2, 1 µM; read-out: residual enzyme activity
Procedure, shortened: as §1

[18] = biological target: MARK3 (Homo sapiens, UniProt P27448); details: MARK3, 1 µM; read-out: residual enzyme activity
Procedure, shortened: as §1

[19] = biological target: MLK2/MAP3K10 (Homo sapiens, UniProt Q02779); details: MLK2/MAP3K10, 1 µM; read-out: residual enzyme activity
Procedure, shortened: as §1

[20] = biological target: PKCEPSILON (Homo sapiens, UniProt Q02156); details: read-out: residual enzyme activity
Procedure, shortened: as §1

[21] = biological target: COT1/MAP3K8 (Homo sapiens, UniProt P41279); details: COT1/MAP3K8, 1 µM; read-out: residual enzyme activity
Procedure, shortened: as §1

[22] = biological target: DAPK2 (Homo sapiens, UniProt Q9UIK4); details: DAPK2, 1 µM; read-out: residual enzyme activity
Procedure, shortened: as §1

[23] = biological target: BRK (Homo sapiens, UniProt Q13882); details: read-out: residual enzyme activity
Chain of BRK (Q13882 whole entry, species assumed): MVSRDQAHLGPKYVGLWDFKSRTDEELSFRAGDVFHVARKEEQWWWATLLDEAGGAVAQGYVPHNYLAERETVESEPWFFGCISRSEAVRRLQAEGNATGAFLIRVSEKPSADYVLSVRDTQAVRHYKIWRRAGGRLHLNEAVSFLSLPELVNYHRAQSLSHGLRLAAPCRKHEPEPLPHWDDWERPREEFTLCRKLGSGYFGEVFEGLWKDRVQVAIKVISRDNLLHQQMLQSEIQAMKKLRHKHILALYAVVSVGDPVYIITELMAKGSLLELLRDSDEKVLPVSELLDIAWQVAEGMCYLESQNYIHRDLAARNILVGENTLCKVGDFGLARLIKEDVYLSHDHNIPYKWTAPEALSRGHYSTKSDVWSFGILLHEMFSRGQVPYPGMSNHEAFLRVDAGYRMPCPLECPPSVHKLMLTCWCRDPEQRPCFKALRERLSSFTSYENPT
Procedure, shortened: as §1

[24] = biological target: VRK2 (Homo sapiens, UniProt Q86Y07); details: VRK2, 1 µM; read-out: residual enzyme activity
Procedure, shortened: as §1

[25] = biological target: ROCK1 (Homo sapiens, UniProt Q13464); details: ROCK1, 1 µM; read-out: residual enzyme activity
Procedure, shortened: as §1

[26] = biological target: CK1D (Homo sapiens, UniProt P48730); details: read-out: residual enzyme activity
Procedure, shortened: as §1

[27] = biological target: PKG1B (Homo sapiens, UniProt Q13976); details: read-out: residual enzyme activity
Chain of PKG1B (Q13976 1-686 isoform Q13976-2): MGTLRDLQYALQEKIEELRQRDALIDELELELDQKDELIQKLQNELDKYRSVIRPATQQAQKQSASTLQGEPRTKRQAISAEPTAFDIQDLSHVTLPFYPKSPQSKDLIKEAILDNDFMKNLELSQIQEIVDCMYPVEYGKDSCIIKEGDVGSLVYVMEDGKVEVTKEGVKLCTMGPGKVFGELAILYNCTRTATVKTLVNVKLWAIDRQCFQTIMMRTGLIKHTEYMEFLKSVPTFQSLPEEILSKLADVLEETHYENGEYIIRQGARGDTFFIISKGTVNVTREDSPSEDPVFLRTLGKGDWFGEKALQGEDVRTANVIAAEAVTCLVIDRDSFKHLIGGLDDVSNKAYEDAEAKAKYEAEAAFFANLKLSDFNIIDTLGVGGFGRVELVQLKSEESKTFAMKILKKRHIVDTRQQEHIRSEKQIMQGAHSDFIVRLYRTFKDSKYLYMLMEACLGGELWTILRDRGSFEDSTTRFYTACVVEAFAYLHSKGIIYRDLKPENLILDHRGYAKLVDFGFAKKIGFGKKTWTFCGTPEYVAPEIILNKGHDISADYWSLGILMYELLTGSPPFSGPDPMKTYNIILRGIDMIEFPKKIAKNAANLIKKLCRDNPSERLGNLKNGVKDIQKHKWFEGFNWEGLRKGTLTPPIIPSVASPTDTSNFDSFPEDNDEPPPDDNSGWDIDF
Procedure, shortened: as §1

[28] = biological target: FGFR4 (Homo sapiens, UniProt P22455); details: FGFR4, 1 µM; read-out: residual enzyme activity
Procedure, shortened: as §1

[29] = biological target: JNK1 (Homo sapiens, UniProt P45983); details: JNK1, 1 µM; read-out: residual enzyme activity
Chain of JNK1 (P45983 whole entry, species assumed): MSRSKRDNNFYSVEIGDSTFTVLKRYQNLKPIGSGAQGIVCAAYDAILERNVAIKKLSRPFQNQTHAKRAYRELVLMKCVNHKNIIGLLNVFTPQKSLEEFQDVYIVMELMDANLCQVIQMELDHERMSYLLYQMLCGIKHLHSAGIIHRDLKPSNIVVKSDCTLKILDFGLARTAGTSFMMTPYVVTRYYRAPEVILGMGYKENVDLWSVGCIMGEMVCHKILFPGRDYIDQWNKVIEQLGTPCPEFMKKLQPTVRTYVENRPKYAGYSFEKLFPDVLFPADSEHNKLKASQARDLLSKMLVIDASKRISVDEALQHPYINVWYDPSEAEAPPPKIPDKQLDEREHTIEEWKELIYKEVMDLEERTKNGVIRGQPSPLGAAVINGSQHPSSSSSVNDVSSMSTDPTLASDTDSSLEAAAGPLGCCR
Procedure, shortened: as §1

[30] = biological target: GSK3A (Homo sapiens, UniProt P49840); details: read-out: residual enzyme activity
Procedure, shortened: as §1

[31] = biological target: PKA (Homo sapiens, UniProt P17612); details: read-out: residual enzyme activity
Procedure, shortened: as §1

[32] = biological target: CDC7/DBF4 (Homo sapiens, UniProt O00311); details: CDC7/DBF4, 1 µM; read-out: residual enzyme activity
Chain of CDC7/DBF4 (O00311 whole entry, species assumed): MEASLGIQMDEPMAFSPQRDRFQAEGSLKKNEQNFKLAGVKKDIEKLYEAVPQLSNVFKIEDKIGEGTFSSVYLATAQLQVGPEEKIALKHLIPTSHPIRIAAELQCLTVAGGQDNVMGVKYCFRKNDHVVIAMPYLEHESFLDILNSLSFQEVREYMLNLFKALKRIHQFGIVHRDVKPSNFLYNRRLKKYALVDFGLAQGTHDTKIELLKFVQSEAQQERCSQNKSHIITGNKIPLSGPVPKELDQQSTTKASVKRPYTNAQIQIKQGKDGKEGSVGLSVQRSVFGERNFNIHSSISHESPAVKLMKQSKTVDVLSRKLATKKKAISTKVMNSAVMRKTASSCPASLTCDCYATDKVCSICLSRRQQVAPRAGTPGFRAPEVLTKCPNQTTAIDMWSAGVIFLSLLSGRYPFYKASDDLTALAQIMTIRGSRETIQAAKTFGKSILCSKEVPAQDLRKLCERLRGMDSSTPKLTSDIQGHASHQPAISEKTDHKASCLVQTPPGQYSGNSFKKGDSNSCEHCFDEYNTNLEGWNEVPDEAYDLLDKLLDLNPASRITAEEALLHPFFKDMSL
Chain of CDC7/DBF4 (Q9UBU7 whole entry partner, species assumed): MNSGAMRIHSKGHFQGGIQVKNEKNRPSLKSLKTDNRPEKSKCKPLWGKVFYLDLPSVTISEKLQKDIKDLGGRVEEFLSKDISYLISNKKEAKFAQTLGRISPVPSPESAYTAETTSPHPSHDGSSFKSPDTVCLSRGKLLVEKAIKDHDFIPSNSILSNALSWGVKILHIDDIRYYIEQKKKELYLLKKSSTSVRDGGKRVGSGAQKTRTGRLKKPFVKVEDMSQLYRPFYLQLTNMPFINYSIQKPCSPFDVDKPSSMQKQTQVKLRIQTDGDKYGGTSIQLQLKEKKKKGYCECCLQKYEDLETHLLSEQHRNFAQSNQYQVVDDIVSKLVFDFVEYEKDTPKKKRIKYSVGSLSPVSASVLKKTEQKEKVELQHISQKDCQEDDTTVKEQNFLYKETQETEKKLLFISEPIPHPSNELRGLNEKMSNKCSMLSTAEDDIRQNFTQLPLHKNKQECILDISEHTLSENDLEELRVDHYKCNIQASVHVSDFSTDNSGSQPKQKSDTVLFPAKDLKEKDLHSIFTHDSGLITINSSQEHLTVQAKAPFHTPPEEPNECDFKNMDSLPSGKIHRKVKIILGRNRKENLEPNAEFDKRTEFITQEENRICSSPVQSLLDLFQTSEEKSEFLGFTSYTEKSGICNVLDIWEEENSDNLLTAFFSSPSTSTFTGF
Procedure, shortened: as §1

SMILES: Cc1ccc(Nc2ncc3c(n2)C2(CC2)C(=O)N(c2cc(NC(=O)c4cccc(C(F)(F)F)c4)ccc2C)C3)cn1 [Compound 51, N-(4-methyl-3-(2'-((6-methylpyridin-3-yl)amino)-7'-oxo-5'H-spiro[cyclopropane-1,8'-pyrido[4,3-d]pyrimidine]-6'(7'H)-yl)phenyl)-3-(trifluoromethyl)benzamide]
- remaining activity at 1 µM [1]: ≤ 40%
- remaining activity at 1 µM [2]: ≤ 40%
- remaining activity at 1 µM [3]: > 40%
- remaining activity at 1 µM [4]: ≤ 40%
- remaining activity at 1 µM [5]: > 40%
- remaining activity at 1 µM [6]: > 40%
- remaining activity at 1 µM [7]: ≤ 40%
- remaining activity at 1 µM [8]: > 40%
- remaining activity at 1 µM [9]: ≤ 40%
- remaining activity at 1 µM [10]: > 40%
- remaining activity at 1 µM [11]: > 40%
- remaining activity at 1 µM [12]: > 40%
- remaining activity at 1 µM ([13]; MYO3b): > 40%
- remaining activity at 1 µM [14]: > 40%
- remaining activity at 1 µM [15]: ≤ 40%
- remaining activity at 1 µM [16]: ≤ 40%
- remaining activity at 1 µM [17]: > 40%
- remaining activity at 1 µM [18]: > 40%
- remaining activity at 1 µM [19]: ≤ 40%
- remaining activity at 1 µM [20]: > 40%
- remaining activity at 1 µM [21]: > 40%
- remaining activity at 1 µM [22]: > 40%
- remaining activity at 1 µM [23]: ≤ 40%
- remaining activity at 1 µM [24]: > 40%
- remaining activity at 1 µM [25]: > 40%
- remaining activity at 1 µM ([26]; CKld): > 40%
- remaining activity at 1 µM ([27]; PKG1b): > 40%
- remaining activity at 1 µM [28]: ≤ 40%
- remaining activity at 1 µM [29]: ≤ 40%
- remaining activity at 1 µM ([30]; GSK3a): > 40%
- remaining activity at 1 µM [31]: > 40%
- remaining activity at 1 µM [32]: > 40%

SMILES: Cc1cn(-c2cc(C(=O)Nc3ccc(C)c(N4Cc5cnc(NC6CC6)nc5C5(CC5)C4=O)c3)cc(C(F)(F)F)c2)cn1 [Compound 8, N-(3-(2'-(cyclopropylamino)-7'-oxo-5'H-spiro[cyclopropane-1,8'-pyrido[4,3-d]pyrimidine]-6'(7'H)-yl)-4-methylphenyl)-3-(4-methyl-1H-imidazol-1-yl)-5-(trifluoromethyl)benzamide]
- remaining activity at 1 µM [1]: ≤ 40%
- remaining activity at 1 µM [2]: ≤ 40%
- remaining activity at 1 µM [3]: > 40%
- remaining activity at 1 µM [4]: ≤ 40%
- remaining activity at 1 µM [5]: > 40%
- remaining activity at 1 µM [6]: > 40%
- remaining activity at 1 µM [7]: ≤ 40%
- remaining activity at 1 µM [8]: > 40%
- remaining activity at 1 µM [9]: ≤ 40%
- remaining activity at 1 µM [10]: > 40%
- remaining activity at 1 µM [11]: > 40%
- remaining activity at 1 µM [12]: > 40%
- remaining activity at 1 µM ([13]; MYO3B): > 40%
- remaining activity at 1 µM [14]: > 40%
- remaining activity at 1 µM [15]: ≤ 40%
- remaining activity at 1 µM [16]: ≤ 40%
- remaining activity at 1 µM [17]: > 40%
- remaining activity at 1 µM [18]: > 40%
- remaining activity at 1 µM [19]: > 40%
- remaining activity at 1 µM [20]: > 40%
- remaining activity at 1 µM [21]: > 40%
- remaining activity at 1 µM [22]: > 40%
- remaining activity at 1 µM [23]: ≤ 40%
- remaining activity at 1 µM [24]: > 40%
- remaining activity at 1 µM [25]: > 40%
- remaining activity at 1 µM ([26]; CK1D): > 40%
- remaining activity at 1 µM ([27]; PKG1B): > 40%
- remaining activity at 1 µM [28]: ≤ 40%
- remaining activity at 1 µM [29]: > 40%
- remaining activity at 1 µM ([30]; GSK3A): > 40%
- remaining activity at 1 µM [31]: > 40%
- remaining activity at 1 µM [32]: > 40%
